Laboratory results from patent publication US20250163016A1, “PYRIDINE DERIVATIVE, PREPARATION METHOD THEREFOR AND USE THEREOF” (CHENGDU EASTON BIOPHARMACEUTICALS CO., LTD., priority 2022, published 2025).

Columns and labels:
[1] = test system: NCI-H1417 cells; assay: NCI-H1417 cell proliferation inhibition test (Celltiter GLO); format: cell-based; conditions: Homo sapiens, 168 h, NCI-H1417, 7 days culture
Description: Research had confirmed that LSD1 played a crucial role in the occurrence process of various types of cancers, including small cell lung cancer (SCLC) and acute myeloid leukemia (AML). Therefore, a human small cell lung cancer (NCI-H1417) cell line was used to determine the ATP content in cells at different drug concentrations using a Celltiter GLO assay kit, and the cell activity was reflected by luminescence intensity. IC50 values of different compounds on the NCI-H1417 cells were calculated using inhibition rates. The inhibitory effects of the compounds in the present application on the proliferation of the NCI-H1417 cells were studied to evaluate the anti-tumor efficacy of the tested compounds at the cellular level.
• Day 1 Cells were seeded into the 384-well cell culture plate and placed in a 37° C. 5% CO2 cell incubator to be cultured overnight. • Day 0 The compound to be tested was prepared into a 10 mM mother liquid using DMSO, starting from 1 μM, diluted by 3 folds, with 10 concentration points and double duplicate wells. A diluted compound was added into the 384-well cell culture plate and placed in a 37° C. 5% CO2 cell incubator to be cultured for 7 days. The concentration of the DMSO in a cell culture system was 0.1%. • Day 7 Celltiter GLO was added into the 384-well cell culture plate according to a volume ratio of culture system:Celltiter GLO=1:1, light-shielded oscillation was carried out on a plate oscillator for 3 min, then the cell culture plate was placed at the room temperature for 30 min with light shielded, and the plate was read using a multifunctional microplate reader chemical light emitting module.
An inhibition percentage was calculated by utilizing luminescence intensity of the above DMSO group (with DMSO added), test group (with the tested compound and a positive control solution added) and blank group (not treating cells), a calculation formula being
Using a logarithm of the concentration as an X axis and the percentage inhibition rate as a Y axis, a dose-response curve was fitted using a formula log(inhibitor) vs. response-Variable slope (Four parameters) of analysis software Graphpad Prism 8 to obtain the IC50 value of each compound on NCI-H1417 proliferation inhibition activity.

[2] = Pharmacokinetics of oral administration of rats; format: in vivo; conditions: male, rat, SD rats, p.o. 5.0 mg/kg, plasma
Description: With SD rats as tested animals, blood drug concentrations in plasma at different moments after oral administration of the compounds of the present application by the rats in a clarification kit mode were determined using an LC-MS/MS method. Pharmacokinetic parameters of the compounds of the present application in the rats were obtained, and pharmacokinetic characteristics of the compounds were studied.
• SD rats, male, weight 180-220 g, 3 rats per group. The animals were fed in an animal house after being purchased, an adaptation period was at least 3 days, and they were used for tests after passing quarantine.
According to Table 4, each group of rats was given the corresponding tested drugs or positive drugs by gavage, before administration, and 15 min, 30 min, 1 h, 2 h, 4 h, 6 h, 8 h, and 24 h after administration, a fixed volume of blood was collected through eye sockets and placed in an EDTA-K2 anticoagulant tube, centrifuging was carried out at 8000 rpm for 1 min to separate plasma into a centrifuge tube, and the plasma was frozen in a −20° C. refrigerator.
The plasma at each time point stored at −20° C. was taken out, then acetonitrile was added, after whirling at 1500 revolutions for 2 min, centrifuging was carried out for 15 min (3500 r/min), and a fixed volume of solution supernatant was taken for LC-MS/MS analysis.
Non-compartment model fitting was carried out on pharmacokinetic behaviors of the tested compounds, and DAS3.31 software was adopted to calculate main pharmacokinetic parameters (T1/2, Tmax, Cmax, AUClast, etc.).

[3] = Liver microsome stability, humans; format: in vitro ADME; conditions: Humans liver microsomes; for CLint scaled / half-life: human; for half-life: NADPH, 37° C.
Description: (§1) A liver microsome in-vitro warm incubation method used liver microsomes, supplemented by an NADPH regeneration system, to simulate physiological environmental conditions in vitro for metabolic reaction, after a certain period of reaction, LC-MS/MS was used to determine prototype drugs and metabolites in a warm incubation solution, and the content was preliminarily analyzed. Studying the liver microsome stability of drugs in different species was crucial for understanding a change process of the drugs in vivo.
(§2) 2.1. Liver Microsomes in Different Species Including Rats, Mice, Humans, Dogs and Monkeys
(§3) According to the requirements of the instructions of a Phase I Metabolic Stability Kit, a liver microsome incubation system was prepared, and according to a sequence, a mixed system of a PBS, liver microsomes, an NADPH regeneration system solution A and an NADPH regeneration system solution B, as well as substances to be tested were added in sequence respectively, and were incubated at 37° C. Each sample was parallelized 3 times, with a sample without an NADPH generation system as a negative control, after 0, 5, 15, 30, 45, and 60 min, equal volumes of pre-cooled acetonitrile were added to terminate the reaction respectively, and the prototype drug content in a warm incubation solution was determined by LC-MS/MS.

[4] = Liver microsome stability, rats; format: in vitro ADME; conditions: Rats liver microsomes; for CLint scaled / half-life: rat; for half-life: NADPH, 37° C.
Description: as §1, §2, §3

[5] = Liver microsome stability, mice; format: in vitro ADME; conditions: Mice liver microsomes; for CLint scaled / half-life: mouse; for half-life: NADPH, 37° C.
Description: as §1, §2, §3

[6] = Liver microsome stability, dogs; format: in vitro ADME; conditions: Dogs liver microsomes; for CLint scaled / half-life: dog; for half-life: NADPH, 37° C.
Description: as §1, §2, §3

[7] = Liver microsome stability, monkeys; format: in vitro ADME; conditions: Monkeys liver microsomes; for CLint scaled / half-life: monkey; for half-life: NADPH, 37° C.
Description: as §1, §2, §3

COc1ccc(-c2c(-c3ccc(C#N)c(F)c3)nc(N3CCC(N)CC3)n(C)c2=O)cc1F [CC-90011, reference compound]
IC50 [1]: 22.9 nM | AUC(0-t) [2]: 356 ± 46.5 ng·h/mL | Cmax [2]: 48.9 ± 12.5 ng/mL | Tmax [2]: 3.33 ± 2.31 h | half-life [2]: 86.4 ± 31.2 min | Remaining (T = 60 min) [3]: 67.2% | CLint scaled [3]: 13.2 mL/min/kg | half-life [3]: 94.4 min | Remaining (T = 60 min) [4]: 58.6% | CLint scaled [4]: 31.2 mL/min/kg | half-life [4]: 80 min | Remaining (T = 60 min) [5]: 72.2% | CLint scaled [5]: 42.2 mL/min/kg | half-life [5]: 130 min | Remaining (T = 60 min) [6]: 76.6% | CLint scaled [6]: 15.8 mL/min/kg | half-life [6]: 126 min | Remaining (T = 60 min) [7]: 56.8% | CLint scaled [7]: 25 mL/min/kg | half-life [7]: 75 min

CC(C)(O)Cn1ncc2cc(-c3c(C#N)cc(N4CCC(N)CC4)nc3-c3ccc(C#N)c(F)c3)c(F)cc21 [Compound 16, 6-(4-aminopiperid-1-yl)-2-(4-cyano-3-fluorophenyl)-3-(6-fluoro-1-(2-hydroxyl-2-methylpropyl)-1H-indazol-5-yl)isonicotinonitrile]
IC50 [1]: 2.79 nM | AUC(0-t) [2]: 561 ± 347 ng·h/mL | Cmax [2]: 69.9 ± 33.5 ng/mL | Tmax [2]: 4 h | half-life [2]: 207.6 ± 1.2 min | Remaining (T = 60 min) [3]: 70.8% | CLint scaled [3]: < 8.6 mL/min/kg | half-life [3]: > 145 min | Remaining (T = 60 min) [4]: 72.1% | CLint scaled [4]: < 17.3 mL/min/kg | half-life [4]: > 145 min | Remaining (T = 60 min) [5]: 77.8% | CLint scaled [5]: < 38 mL/min/kg | half-life [5]: > 145 min | Remaining (T = 60 min) [6]: 76.4% | CLint scaled [6]: < 13.8 mL/min/kg | half-life [6]: > 145 min | Remaining (T = 60 min) [7]: 62.0% | CLint scaled [7]: 19.2 mL/min/kg | half-life [7]: 97.3 min

CC(C)(O)Cn1nc(F)c2cc(-c3c(C#N)cc(N4CCC(N)CC4)nc3-c3ccc(C#N)c(F)c3)c(F)cc21 [Compound 36, 6-(4-aminopiperid-1-yl)-2-(4-cyano-3-fluorophenyl)-3-(3,6-difluoro-1-(2-hydroxyl-2-methylpropyl)-1H-indazol-5-yl)isonicotinonitrile]
IC50 [1]: 4 nM | AUC(0-t) [2]: 769 ± 361 ng·h/mL | Cmax [2]: 100 ± 54.4 ng/mL | Tmax [2]: 4.67 ± 1.15 h | half-life [2]: 214 ± 20.4 min | Remaining (T = 60 min) [3]: 81.7% | CLint scaled [3]: < 8.6 mL/min/kg | half-life [3]: > 145 min | Remaining (T = 60 min) [4]: 76.1% | CLint scaled [4]: < 17.3 mL/min/kg | half-life [4]: > 145 min | Remaining (T = 60 min) [5]: 75.5% | CLint scaled [5]: < 38 mL/min/kg | half-life [5]: > 145 min | Remaining (T = 60 min) [6]: 76.3% | CLint scaled [6]: < 13.8 mL/min/kg | half-life [6]: > 145 min | Remaining (T = 60 min) [7]: 72.1% | CLint scaled [7]: 16.9 mL/min/kg | half-life [7]: 110 min
